Here are results for two compounds from patent US9790196B2, “Lysine demethylase inhibitors for diseases and disorders associated with Flaviviridae” (Oryzon Genomics, S.A., priority 2010, dated 2017).

Series [1] has as its system HCV RNA replicon in Huh7 ET (luc-ubi-neo/ET) cells. The series is described as follows: microbe, parasite or virus in culture. The series is classed as cell-based. Here is the method:
Anti-HCV assays were conducted at Southern Research Organization using an HCV RNA replicon with a luciferase reporter.
Southern Research reports that they use cell line Huh7 ET (luc-ubi-neo/ET) containing a HCV RNA replicon with a luciferase (LUC) reporter. […] This composition of the replicon is shown as follows
The HCV RNA replicon ET contains the 5′ NTR (IRES) of HCV (5′) which drives the production of a firefly luciferase (Luc), ubiquitin (Ubiq), and neomycin phosphotransferase (Neo) fusion protein. Ubiquitin cleavage releases the LUC and Neo genes. The EMCV IRES element (E-I) controls the translation of the HCV […] proteins NS3-NS5 and is located between Neo and NS3. The NS3 protein cleaves the HCV polyprotein to release the mature NS3, NS4A, NS4B, NS5A and NS5B proteins that are required for HCV replication. At the 3′ end of the replicon is the authentic 3′ NTR of HCV. The LUC reporter is used as an indirect measure of HCV replication. The activity of the LUC reporter is directly proportional to HCV RNA levels and positive control antiviral compounds behave comparably using either LUC or RNA endpoints.
(§1) The effect of drug added in triplicate at concentrations of from e.g., 0 to 100 uM using half log dilutions on HCV RNA-derived LUC activity and cytotoxicity. Human interferon alpha-2b is included in each run as a positive control compound. Subconfluent cultures of the ET line are plated out into 96-well plates that are dedicated for the analysis of cell numbers (cytotoxicity) or antiviral activity and the next day drugs are added to the appropriate wells. Cells are processed 72 hr later when the cells are still subconfluent. Compound cytotoxicity is assessed as the percent viable cells relative to the untreated cell controls.

The next series in a line: PK studies (Cmax). The conditions noted are these: at the MTD study doses. The series is classed as in vivo, mice. Here is the method:
(§2) Maximum tolerated dose studies and pharmacokinetics for several LSD1 inhibitors were assessed to determine if the compounds can be administered to mammals safely at doses that are expected to achieve therapeutic effects. In particular, Compound X was given to mice IP at 20 mg/kg, 40 mg/kg and 60 mg/kg daily for 5 days in a MTD study conducted at Leitat.

A short description of series [2]: Maximum tolerated dose study. The series is classed as in vivo. To be noted: mice, IP, 20, 40 and 60 mg/kg daily for 5 days. As for the experimental part:
as §2

A short description of the next series: in vitro. To be noted: human, Cytotoxicity IC50, 72 hr. As for the experimental part: as §1
The subject of series [3] is Huh7 ET (luc-ubi-neo/ET) cells. The series is described as follows: in vitro. To be noted: read-out: Cytotoxicity IC50; 72 hr. As for the experimental part: as §1
Series [4] concerns H3K4 methylation in SH-SY5Y cells. The series is described as follows: Western blot for dimethylated H3K4 in SH-SY5Y cells. The series is classed as cell-based. The source says: […]. B-actin was used as a loading control.
Background: Immunoblotting shows a protein as a band on a membrane.

SMILES strings stand for the structures. Read-outs that look alike come from different tables or passages of the source.

Broadly, the IC50 is the concentration at which inhibition is half-maximal. Regarding `NC1CC1c1ccc(-c2cccc(O)c2)cc1` (centres unmarked) [Compound X], the EC50 in series [1] (HCV RNA-derived LUC activity, 72 hr, read-out: Antiviral Activity EC50) is below 320 nM; in series [1] (Hepatitis C virus, Huh7 ET, 72 h, HCV RNA-derived LUC activity, 72 hr, read-out: Antiviral Activity EC50), 490 nM; in series [1] (Hepatitis C virus, Huh7 ET, read-out: anti-HCV activity in HCV RNA replication assay), 300 to 500 nM. In “PK studies (Cmax)”, the Cmax result is listed as “expected to result in therapeutic levels”. The “tolerability in MTD study” value in series [2] is “tolerated with acceptable toxicity”. For the same compound, the IC50 in “in vitro” was found to be 54800 nM; in series [3], 50600 nM.

Turning to `NC(=O)CNC1CC1c1ccc(OCc2ccccc2)cc1` (centres unmarked) [Dual-1], the “potency at increasing global dimethylated H3K4 levels as compared to tranylcypromine” value in series [4] is at least 10 fold.
